Experiments:
[1] = Acute toxicity, lethal dose 50 (Litchfield-Wilcoxon), intraperitoneal; settings: mouse, in vivo, ip, mice, deaths recorded three days after administration
Procedure: (§1) The object of the studies carried out on all the products was to calculate the acute toxicity, expressed in the form of lethal dose 50, and to evaluate the analgesic effect by administering the drugs orally and intraperitoneally.
Tests were carried out on I.C.R. Swiss albino mice of both sexes weighing between 20 and 35 grams. The products were administered intraperitoneally,recording the number of dead animals three days after administration of the drugs. The statistical method used for the calculation of lethal dose 50 was the Litchfield-Wilcoxon method.

[2] = Analgesic effect by intraperitoneal route (Siegmund technique modified by Koster, 1% acetic acid irritant); format: in vivo; settings: products 1 mg/kg, reference 25 mg/kg, 30 minutes after administration, dextropropoxyphene = 1
Procedure: There is a series of 19 products, with analgesic activity, the effects whereof were tested using dextropropoxyphene as a reference drug.
as §1
1. ACTIVITY BY INTRAPERITONEAL ROUTE
(§2) The analgesic effect was evaluated according to the technique of Siegmund et al. (Proc. Soc. Exp. Biol. Med. 95, 729, 1957) modified by Koster et al. (Fed. Proc. 18, 412, 1957), a chemical analgesia test which uses 1% acetic acid as an irritant. The drugs under study were administered at the dose of 1 mg/kg and the reference drug at 25 mg/kg. The evaluation was made 30 minutes after the administrations. The results are given in Table B-1, expressing the results in the form of relative potency (F), giving dextropropoxyphene value 1. [formula]

[3] = Analgesic effect by oral route (Siegmund technique modified by Koster, 1% acetic acid irritant); format: in vivo; settings: products 5 mg/kg, dextropropoxyphene = 1
Procedure: as §1, §2
2. ACTIVITY BY ORAL ROUTE
The foregoing procedure was used, with the difference that the dose of the products under study was 5 mg/kg.

Compound	LD50 at 72 h [1]	Analgesic effect by intraperitoneal route, relative potency F [2]	Analgesic effect by oral route, relative potency F [3]
CCC(=O)O[C@](Cc1ccccc1)(c1ccccc1)[C@H](C)CN(C)C [Dextropropoxyphene, dextropropoxyphene, reference compound]	140 mg/kg		
O=C(Cc1ccccc1)NC(c1ccncc1)C(NC(=O)Cc1ccccc1)c1ccncc1 (stereo not shown) [Example 18]	1540 mg/kg	0.96	2.13
Cc1cc(C)cc(C(=O)NC(c2ccncc2)C(NC(=O)c2cc(C)cc(C)c2)c2ccncc2)c1 (stereo not shown) [Example 7]	> 1600 mg/kg	1.53	1.17
CC(=O)NC(c1ccncc1)C(NC(C)=O)c1ccncc1 (stereo not shown) [Example 1]	1120 mg/kg	1.01	0.85
O=C(NC(c1ccncc1)C(NC(=O)c1ccc([N+](=O)[O-])cc1)c1ccncc1)c1ccc([N+](=O)[O-])cc1 (stereo not shown) [Example 16]	> 1600 mg/kg	1.38	1.25
O=C(NC(c1ccncc1)C(NC(=O)c1cccc(Cl)c1)c1ccncc1)c1cccc(Cl)c1 (stereo not shown) [Example 9]	> 1300 mg/kg	1.08	1.05
O=C(NC(c1ccncc1)C(NC(=O)c1ccc(Cl)cc1)c1ccncc1)c1ccc(Cl)cc1 (stereo not shown) [Example 8]	> 1600 mg/kg	1.58	1.29
O=C(NC(c1ccncc1)C(NC(=O)c1ccc(C(F)(F)F)cc1)c1ccncc1)c1ccc(C(F)(F)F)cc1 (stereo not shown) [Example 13]	> 1200 mg/kg	1.38	1.19
O=C(NC(c1ccncc1)C(NC(=O)c1ccccc1Cl)c1ccncc1)c1ccccc1Cl (stereo not shown) [Example 10]	1060 mg/kg	1.37	1.34
O=C(NC(c1ccncc1)C(NC(=O)c1ccc(-c2ccccc2)cc1)c1ccncc1)c1ccc(-c2ccccc2)cc1 (stereo not shown) [Example 19]	> 1600 mg/kg	1.08	1.13
O=C(NC(c1ccncc1)C(NC(=O)c1cc(Cl)cc(Cl)c1)c1ccncc1)c1cc(Cl)cc(Cl)c1 (stereo not shown) [Example 11]	> 1200 mg/kg	0.84	1.22
CC(C)(C)c1ccc(C(=O)NC(c2ccncc2)C(NC(=O)c2ccc(C(C)(C)C)cc2)c2ccncc2)cc1 (stereo not shown) [Example 17]	> 1600 mg/kg	1.11	1.17
CS(=O)(=O)c1ccc(C(=O)NC(c2ccncc2)C(NC(=O)c2ccc(S(C)(=O)=O)cc2)c2ccncc2)cc1 (stereo not shown) [Example 15]	> 2000 mg/kg	1.43	1.05
O=C(NC(c1ccncc1)C(NC(=O)c1ccccc1)c1ccncc1)c1ccccc1 (stereo not shown) [Example 3]	> 1300 mg/kg	1.21	1.35
Cc1ccc(C(=O)NC(c2ccncc2)C(NC(=O)c2ccc(C)cc2)c2ccncc2)cc1 (stereo not shown) [Example 4]	> 1660 mg/kg	1.04	1.11
Cc1ccccc1C(=O)NC(c1ccncc1)C(NC(=O)c1ccccc1C)c1ccncc1 (stereo not shown) [Example 6]	> 1600 mg/kg	1.09	1.67
COc1ccc(C(=O)NC(c2ccncc2)C(NC(=O)c2ccc(OC)cc2)c2ccncc2)cc1 (stereo not shown) [Example 14]	> 1600 mg/kg	1.09	1.23
Cc1cccc(C(=O)NC(c2ccncc2)C(NC(=O)c2cccc(C)c2)c2ccncc2)c1 (stereo not shown) [Example 5]	> 1400 mg/kg	1.85	1.64
CCCC(CCC)C(=O)NC(c1ccncc1)C(NC(=O)C(CCC)CCC)c1ccncc1 (stereo not shown) [Example 2]	> 1600 mg/kg	1.43	0.95
O=C(NC(c1ccncc1)C(NC(=O)c1ccc(F)cc1)c1ccncc1)c1ccc(F)cc1 (stereo not shown) [Example 12]	1110 mg/kg	1.17	0.81

Reference: patent US4288597A, “1,2-Diacylamino-1,2-di(4-pyridyl)ethanes and process for producing thereof” (Laboratorios Made, S.A., priority 1979, dated 1981)
